Measurements reported in US12653191B2, “Active compound combinations” (Bayer Aktiengesellschaft, priority 2020, dated 2026).
Where two headings read alike, the source gives them in different places.

Experiments:
Alternaria alternate = assay: in vitro-Test with fungal microorganisms, Method A (tables A1-A12); format: cell-based, Alternaria alternata; conditions: Alternaria, applied alone, read-out: Efficacy %
How it was run: (§1)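 First, compound in methanol with alkylaryl-polyglycol-ether was dried down in the plate. Next, spore or mycelium suspension in potato dextrose broth was added and extinction read at 620 nm. After 3-5 days at 20° C, 85% RH, reading was repeated and efficacy scored against untreated wells.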

Alternaria alternata = assay: in vitro-Test with fungal microorganisms, Method B (tables A13-A22); format: cell-based; conditions: Alternaria alternata, read-out: Efficacy
How it was run: (§2)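 Cpd in MeOH + alkylaryl-polyglycol-ether, solvent evaporated; liquid medium + fungal spores/mycelium added; OD600 read; 3–7 d, 20° C., 85% RH; growth inhibition by photometry, % efficacy vs untreated ctrl.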

Botrytis cinerea = assay: in vitro-Test with fungal microorganisms, Method A (tables B1-B14); format: cell-based; conditions: Botrytis cinerea
How it was run: as §1

Cercospora beticola [1] = assay: in vitro-Test with fungal microorganisms, Method A (tables C1-C10); format: cell-based; conditions: Cercospora beticola, read-out: Efficacy %
How it was run: as §1

Cercospora beticola [2] = assay: in vitro-Test with fungal microorganisms, Method B (tables C11-C20); format: cell-based; conditions: Cercospora beticola, read-out: Efficacy %
How it was run: as §2

[3] = system: Colletotrichum lindemuthianum; assay: in vitro-Test with fungal microorganisms, Method A (tables D1-D8); format: cell-based
How it was run: as §1

Cordana musae [4] = assay: in vitro-Test with fungal microorganisms, Method A (tables E1-E8); format: cell-based; conditions: Neocordana musae, read-out: Efficacy %
How it was run: as §1

Diaporthe citri [5] = assay: in vitro-Test with fungal microorganisms, Method A (tables F1-F11); format: cell-based; conditions: Diaporthe citri, read-out: Efficacy
How it was run: as §1

Diaporthe citri [6] = assay: in vitro-Test with fungal microorganisms, Method B (tables F12-F15); format: cell-based
Protocol: Example: In Vitro-Test with Fungal Microorganisms
Wells of 96-well microtiter plates are filled with 30 μl of a preparation of test compound or compound combination in methanol+emulsifier alkylaryl-polyglycol-ether. Thereafter, the solvent is evaporated in a hood. At the next step, 200 μl of liquid growth medium is given, that has been amended with an appropriate concentration of spores or mycelium suspension of the test fungus.
With the aid of a photometer, the extinction in all wells is measured at the wavelength of 600 nm.
The microtiter plates are incubated for 3 to 7 days at 20° C. and 85% relative humidity. After the incubation inhibition of growth is determined photometrically. Efficacy is calculated in relation to the untreated control, 0% efficacy means fungal growth as high as in untreated control while 100% efficacy means no fungal growth is measured.
The data in tables A1 to A12, B1 to B14, C1 to C10, D1 to D8, E1 to E8, F1 to F11, G1 to G4, H1 to H4 and I1 to I5 were collected according to Method A. The data in tables A13 to A22, B15 to B18, C11 to C20, E9 to E16, F12 to F15, G5 to G15, H5 to H8, I6 to I11 and J1 to J11 were collected according to Method B.

Fusarium culmorum [7] = assay: in vitro-Test with fungal microorganisms, Method A (tables G1-G4); format: cell-based
How it was run: as §1

Parastagonospora nodorum = assay: in vitro-Test with fungal microorganisms, Method B (tables H5-H8); format: cell-based; conditions: Parastagonospora nodorum, read-out: Efficacy
How it was run: as §2

[8] = system: Ustilago segetum var. avenae; assay: in vitro-Test with fungal microorganisms, Method A (tables I1-I5); format: cell-based; conditions: alone, read-out: Efficacy %
How it was run: as §1

[9] = system: Ustilago segetum var. avenae; assay: in vitro-Test with fungal microorganisms, Method B (tables I6-I11); format: cell-based; conditions: read-out: Efficacy %
How it was run: as §2

Colletotrichum coccodes = assay: in vitro-Test with fungal microorganisms, Method B (tables J1-J11); format: cell-based; conditions: Colletotrichum coccodes, read-out: Efficacy %
How it was run: as §2

Cordana musae [10] = assay: in vitro-Test with fungal microorganisms, Method B (tables E9-E16); format: cell-based; conditions: for Efficacy %: single substance
How it was run: as §2

Fusarium culmorum [11] = assay: in vitro-Test with fungal microorganisms, Method B (tables G5-G15); format: cell-based; conditions: Fusarium culmorum, single active compound, 0.08 ppm; read-out: Efficacy
How it was run: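 Efficacy scale: 0% means growth equal to the untreated control, 100% means none detected. Compounds are dried from methanol with emulsifier before adding inoculated growth medium; incubation at 20° C., 85% relative humidity for 3 to 7 days precedes photometric inhibition readout.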

CON=C(C(=O)OC)c1ccccc1CON=C(C)c1cccc(C(F)(F)F)c1 [(3.020) trifloxystrobin, trifloxystrobin]
inhibition of growth at 0.008 ppm (Alternaria alternate; 0.008 ppm): 44%
inhibition of growth at 0.04 ppm (Alternaria alternate; 0.04 ppm): 87%
inhibition of growth at 0.2 ppm (Alternaria alternate; 0.2 ppm): 95%
inhibition of growth at 1 ppm (Alternaria alternate; 1.0 ppm): 96%
inhibition of growth at 0.04 ppm (Alternaria alternata; 0.04 ppm): 49%
inhibition of growth at 0.2 ppm (Alternaria alternata; 0.2 ppm): 85%
inhibition of growth at 0.008 ppm (Botrytis cinerea; alone, 0.008 ppm, read-out: Efficacy %): 19%
inhibition of growth at 0.04 ppm (Botrytis cinerea; alone, 0.04 ppm, read-out: Efficacy %): 0%
inhibition of growth at 0.2 ppm (Botrytis cinerea; alone, 0.2 ppm, read-out: Efficacy %): 0%
inhibition of growth at 1 ppm (Botrytis cinerea; alone, 1.0 ppm, read-out: Efficacy %): 37%
inhibition of growth at 0.008 ppm (Cercospora beticola [1]; 0.008 ppm alone): 95%
inhibition of growth at 0.04 ppm (Cercospora beticola [1]; 0.04 ppm alone): 100%
inhibition of growth at 0.2 ppm (Cercospora beticola [1]; 0.2 ppm alone): 100%
inhibition of growth at 1 ppm (Cercospora beticola [1]; 1.0 ppm alone): 100%
inhibition of growth at 0.008 ppm (Cercospora beticola [2]; single compound, 0.008 ppm): 96%
inhibition of growth at 0.008 ppm ([3]; Colletotrichum lindemuthianum, mixing partner alone, 0.008 ppm, read-out: Efficacy %): 30%
inhibition of growth at 0.04 ppm ([3]; Colletotrichum lindemuthianum, mixing partner alone, 0.04 ppm, read-out: Efficacy %): 80%
inhibition of growth at 0.2 ppm ([3]; Colletotrichum lindemuthianum, mixing partner alone, 0.2 ppm, read-out: Efficacy %): 92%
inhibition of growth at 1 ppm ([3]; Colletotrichum lindemuthianum, mixing partner alone, 1.0 ppm, read-out: Efficacy %): 88%
inhibition of growth at 0.008 ppm ([3]; Colletotrichum lindemuthianum, single active at 0.008 ppm, read-out: Efficacy %): 25%
inhibition of growth at 0.04 ppm ([3]; Colletotrichum lindemuthianum, single active at 0.04 ppm, read-out: Efficacy %): 66%
inhibition of growth at 0.2 ppm ([3]; Colletotrichum lindemuthianum, single active at 0.2 ppm, read-out: Efficacy %): 85%
inhibition of growth at 1 ppm ([3]; Colletotrichum lindemuthianum, single active at 1.0 ppm, read-out: Efficacy %): 84%
inhibition of growth at 0.008 ppm (Cordana musae [4]; mixing partner alone): 3%
inhibition of growth at 1 ppm (Cordana musae [4]; mixing partner alone): 66%
inhibition of growth at 0.008 ppm (Cordana musae [4]; single substance): 13%
inhibition of growth at 0.04 ppm (Cordana musae [4]; single substance, 0.04 ppm): 67%
inhibition of growth at 0.2 ppm (Cordana musae [4]; single substance, 0.2 ppm): 48%
inhibition of growth at 1 ppm (Cordana musae [4]; single substance): 77%
inhibition of growth at 0.008 ppm (Diaporthe citri [5]; applied alone): 65%
inhibition of growth at 0.04 ppm (Diaporthe citri [5]; applied alone): 95%
inhibition of growth at 0.008 ppm (Diaporthe citri [5]; single active): 63%
inhibition of growth at 0.04 ppm (Diaporthe citri [5]; single active): 95%
inhibition of growth at 0.2 ppm (Diaporthe citri [5]; single active, 0.2 ppm): 95%
inhibition of growth at 1 ppm (Diaporthe citri [5]; single active, 1.0 ppm): 96%
Efficacy (Diaporthe citri [6]; Table F15, 0.008 ppm alone): 68%
inhibition of growth at 0.2 ppm (Fusarium culmorum [7]; Fusarium culmorum, 0.2 ppm, alone, read-out: Efficacy): 22%
inhibition of growth at 1 ppm (Fusarium culmorum [7]; Fusarium culmorum, 1.0 ppm, alone, read-out: Efficacy): 5%
inhibition of growth at 0.04 ppm (Fusarium culmorum [7]; Fusarium culmorum, Table G1, 0.04 ppm alone, read-out: Efficacy): 0%
inhibition of growth at 0.2 ppm (Fusarium culmorum [7]; Fusarium culmorum, Table G1, 0.2 ppm alone, read-out: Efficacy): 15%
inhibition of growth at 1 ppm (Fusarium culmorum [7]; Fusarium culmorum, Table G1, 1.0 ppm alone, read-out: Efficacy): 15%
inhibition of growth at 0.008 ppm (Parastagonospora nodorum; 0.008 ppm): 17%
inhibition of growth at 0.04 ppm (Parastagonospora nodorum; 0.04 ppm): 54%
inhibition of growth at 0.2 ppm (Parastagonospora nodorum; 0.2 ppm): 83%
inhibition of growth at 1 ppm (Parastagonospora nodorum; 1 ppm): 87%
inhibition of growth at 0.008 ppm ([8]; 0.008 ppm): 19%
inhibition of growth at 0.04 ppm ([8]; 0.04 ppm): 0%
inhibition of growth at 1 ppm ([8]; 1.0 ppm): 64%
inhibition of growth at 5 ppm ([8]; 5.0 ppm): 100%
inhibition of growth at 0.04 ppm ([9]; 0.04 ppm): 38%
inhibition of growth at 0.2 ppm ([9]; 0.2 ppm): 54%
inhibition of growth at 1 ppm ([9]; 1 ppm): 60%
inhibition of growth at 0.04 ppm (Colletotrichum coccodes; 0.04 ppm): 35%
inhibition of growth at 0.008 ppm (Colletotrichum coccodes; single active compound at 0.008 ppm): 0%
inhibition of growth at 1 ppm (Colletotrichum coccodes; single active compound at 1 ppm): 50%

N#Cc1sc2c(=O)c3ccccc3c(=O)c=2sc1C#N [(5.010) dithianon, dithianon]
inhibition of growth at 0.4 ppm (Alternaria alternata; single compound, 0.4 ppm): 0%
inhibition of growth at 2 ppm (Alternaria alternata; single compound, 2 ppm): 32%
inhibition of growth at 0.8 ppm (Botrytis cinerea; read-out: Efficacy): 0%
inhibition of growth at 4 ppm (Botrytis cinerea; 4.0 ppm, read-out: Efficacy): 23%
inhibition of growth at 20 ppm (Botrytis cinerea; read-out: Efficacy): 100%
inhibition of growth at 0.8 ppm (Botrytis cinerea; alone, read-out: Efficacy %): 0%
inhibition of growth at 20 ppm (Botrytis cinerea; alone, read-out: Efficacy %): 99%
inhibition of growth at 0.8 ppm (Cercospora beticola [1]; 0.8 ppm): 0%
inhibition of growth at 4 ppm (Cercospora beticola [1]; 4.0 ppm alone): 100%
inhibition of growth at 4 ppm (Cercospora beticola [1]; 4.0 ppm): 100%
inhibition of growth at 20 ppm (Cercospora beticola [1]; 20.0 ppm alone): 99%
inhibition of growth at 20 ppm (Cercospora beticola [1]; 20.0 ppm): 99%
inhibition of growth at 0.08 ppm (Cercospora beticola [2]; 0.08 ppm): 0%
inhibition of growth at 0.4 ppm (Cercospora beticola [2]; 0.4 ppm): 3%
inhibition of growth at 2 ppm (Cercospora beticola [2]; 2 ppm): 100%
inhibition of growth at 0.8 ppm ([3]; Colletotrichum lindemuthianum, single active at 0.8 ppm, read-out: Efficacy %): 0%
inhibition of growth at 4 ppm ([3]; Colletotrichum lindemuthianum, single active at 4.0 ppm, read-out: Efficacy %): 100%
inhibition of growth at 20 ppm ([3]; Colletotrichum lindemuthianum, single active at 20.0 ppm, read-out: Efficacy %): 100%
Efficacy % ([3]; single active at 0.8 ppm): 0%
inhibition of growth at 0.8 ppm (Cordana musae [4]; single substance, 0.8 ppm): 0%
inhibition of growth at 4 ppm (Cordana musae [4]; single substance, 4.0 ppm): 100%
inhibition of growth at 2 ppm (Cordana musae [10]; Neocordana musae, single active, 2 ppm, read-out: Efficacy): 95%
Efficacy % (Cordana musae [10]; 0.08 ppm): 0%
Efficacy % (Cordana musae [10]; 10 ppm): 100%
inhibition of growth at 0.8 ppm (Diaporthe citri [5]; Table F10, 0.8 ppm alone): 9%
inhibition of growth at 4 ppm (Diaporthe citri [5]; Table F10, 4.0 ppm alone): 99%
inhibition of growth at 20 ppm (Diaporthe citri [5]; Table F10, 20.0 ppm alone): 98%
inhibition of growth at 0.8 ppm (Diaporthe citri [5]; applied alone, 0.8 ppm): 17%
inhibition of growth at 20 ppm (Diaporthe citri [5]; applied alone, 20.0 ppm): 98%
Efficacy (Diaporthe citri [6]; Table F13, 0.4 ppm alone): 13%
Efficacy (Fusarium culmorum [7]; 20.0 ppm, alone): 100%
inhibition of growth at 4 ppm (Fusarium culmorum [7]; Fusarium culmorum, 4.0 ppm, alone, read-out: Efficacy): 0%
inhibition of growth at 0.08 ppm (Fusarium culmorum [11]): 4%
inhibition of growth at 0.08 ppm (Parastagonospora nodorum; 0.08 ppm): 12%
inhibition of growth at 0.4 ppm (Parastagonospora nodorum; 0.4 ppm): 5%
inhibition of growth at 2 ppm (Parastagonospora nodorum; 2 ppm): 96%
inhibition of growth at 0.8 ppm ([8]; 0.8 ppm): 12%
inhibition of growth at 4 ppm ([8]; 4.0 ppm): 100%
inhibition of growth at 20 ppm ([8]; 20.0 ppm): 99%
inhibition of growth at 0.08 ppm ([9]; 0.08 ppm): 2%
inhibition of growth at 0.4 ppm ([9]; 0.4 ppm): 0%
inhibition of growth at 2 ppm ([9]; 2 ppm): 29%
inhibition of growth at 0.08 ppm (Colletotrichum coccodes; single active compound at 0.08 ppm): 0%
inhibition of growth at 0.4 ppm (Colletotrichum coccodes; single active compound at 0.4 ppm): 11%
inhibition of growth at 10 ppm (Colletotrichum coccodes; single active compound at 10 ppm): 100%
